{"source": "patent US20090137546A1", "about": "“Anti-Hypercholesterolemic Compounds” (priority 2005, published 2009)", "tested_on": "cholesterol absorption", "assay": "Cholesterol Absorption Assay in Mice", "type": "in vivo, C57BL/6 male mice", "details": "highest dose tested (oral, 0.12-10 mg/kg range); [3H]-cholesterol counts in liver and plasma, 5 h after cholesterol dose", "protocol": "Compounds of this invention were determined to inhibit cholesterol absorption employing the Cholesterol Absorption Assay in Mice, below. This assay involves comparing a test compound to ezetimibe with respect to their ability to inhibit cholesterol absorption in mice.\nCholesterol Absorption Assay in Mice: C57BL/6 male mice (n=6/group), aged 10-14 weeks, were dosed orally with 0.2 ml 0.25% methyl cellulose solution with or without test compound or ezetimibe (0.12-10 mg/kg). Thirty minutes later all of the mice were dosed orally with 0.2 ml […]™ containing 2 μCi [^3H]-cholesterol per mouse. Five hours later, the animals were euthanized, and liver and blood were collected. Cholesterol counts in liver and plasma were determined, and percent inhibition of cholesterol absorption was calculated.", "data": [{"compound": "O=C1[C@H](CC[C@H](O)c2ccc(F)cc2)[C@@H](c2ccc(O)cc2)N1c1ccc(F)cc1", "note": "[ezetimibe]", "values": [{"measurement": "inhibition of cholesterol absorption", "value": "> 90", "unit": "%"}]}]}
